Laboratory results published in patent publication US9448237B2, “Modified tyrosine amino acids, peptides containing them, and their use for detecting hydrolase enzyme activity” (PAMGENE B.V., priority 2011, dated 2016).

Legend:
phosphatase PTP1B = phosphatase PTP1B (Homo sapiens, UniProt P18031); details: spotted with 1 mM peptide solution; one hour incubation with PTP1B in Tris-buffer containing DTT; FIG. 7
Protocol: After one hour incubation with phosphatase PTP1B in a Tris-buffer containing DTT, the microarray was washed and treated with a solution of PY20 antibody. […] The left image: not treated with PTP1B. The right image: treated with PTP1B.

phosphatase = details: FIG. 5
Protocol: A Tris buffer (25 μL, 50 mM, pH 7.4, modified with 0.5 mM DTT) was used to dissolve the appropriate phosphatase (20-100 ng) together with BSA (0.25 μL, 10 mg/mL), anti-nitrotyrosine antibody (0.5 μL, 0.5 mg/mL in PBS pH 7.4), FITC-goat-anti-mouse antibody (0.5 μL, 4 μg/mL). The resulting mixture was added to Pamchip® microarrays and the fluorescence imaged in real time using a Pamstation® PS12 instrument. The images were analyzed using the Bionavigator software package (Pamgene International BV, 's-Hertogenbosch, The Netherlands).
To the mixture described in Example 14, a 1 μL amount of sodium vanadate solutions with appropriate concentration was added.

Sequence of phosphatase PTP1B (P18031 whole entry): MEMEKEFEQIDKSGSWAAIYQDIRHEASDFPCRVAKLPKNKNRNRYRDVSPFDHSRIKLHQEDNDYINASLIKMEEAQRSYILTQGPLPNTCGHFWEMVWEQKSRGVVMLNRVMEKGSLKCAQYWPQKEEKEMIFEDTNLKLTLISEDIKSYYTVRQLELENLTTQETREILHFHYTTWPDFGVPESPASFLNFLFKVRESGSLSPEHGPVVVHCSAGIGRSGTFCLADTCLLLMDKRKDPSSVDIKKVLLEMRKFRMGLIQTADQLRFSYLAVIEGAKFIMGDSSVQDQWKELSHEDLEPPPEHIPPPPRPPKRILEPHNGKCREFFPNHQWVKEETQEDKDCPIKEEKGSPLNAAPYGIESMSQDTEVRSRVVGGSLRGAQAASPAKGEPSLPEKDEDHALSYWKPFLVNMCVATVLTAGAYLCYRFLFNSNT

Substance	recognition as substrate and dephosphorylation by phosphatase (phosphatase PTP1B)	inhibition of the phosphatase enzyme activity (phosphatase)
H-CDADE-(3-Br-pY)-LIPQQG-NH2 [3-bromo-phosphotyrosine peptide]	recognized by the phosphatase and dephosphorylated equally well	–
sodium ortho-vanadate	–	concentration dependent inhibition
